Results published in ChEMBL document CHEMBL2202954, “The effect of PLC-γ2 inhibitors on the growth of human tumour cells” (2012).

Experiments:
Assay type in all cases: functional
T47D = assay: Cytotoxicity against human T47D cells assessed as cellular growth at 10 uM by SRB assay
MDA-MB-231 = assay: Cytotoxicity against human MDA-MB-231 cells assessed as cellular growth at 10 uM by SRB assay
MCF7 = assay: Cytotoxicity against human MCF7 cells assessed as cellular growth at 10 uM by SRB assay
UO-31 = assay: Cytotoxicity against human UO31 cells assessed as cellular growth at 10 uM by SRB assay
ACHN = assay: Cytotoxicity against human ACHN cells assessed as cellular growth at 10 uM by SRB assay
SK-OV-3 = assay: Cytotoxicity against human SKOV3 cells assessed as cellular growth at 10 uM by SRB assay
OVCAR-8 = assay: Cytotoxicity against human OVCAR8 cells assessed as cellular growth at 10 uM by SRB assay
OVCAR-3 = assay: Cytotoxicity against human OVCAR3 cells assessed as cellular growth at 10 uM by SRB assay
UACC-257 = assay: Cytotoxicity against human UACC257 cells assessed as cellular growth at 10 uM by SRB assay
SK-MEL-5 = assay: Cytotoxicity against human SK-MEL-5 cells assessed as cellular growth at 10 uM by SRB assay
SK-MEL-28 = assay: Cytotoxicity against human SK-MEL-28 cells assessed as cellular growth at 10 uM by SRB assay
SK-MEL-2 = assay: Cytotoxicity against human SK-MEL-2 cells assessed as cellular growth at 10 uM by SRB assay
LOX IMVI = assay: Cytotoxicity against human LOXIMVI cells assessed as cellular growth at 10 uM by SRB assay
U-251 = assay: Cytotoxicity against human U251 cells assessed as cellular growth at 10 uM by SRB assay
SNB-75 = assay: Cytotoxicity against human SNB75 cells assessed as cellular growth at 10 uM by SRB assay
SF-539 = assay: Cytotoxicity against human SF539 cells assessed as cellular growth at 10 uM by SRB assay
HCT-116 = assay: Cytotoxicity against human HCT116 cells assessed as cellular growth at 10 uM by SRB assay
NCI-H226 = assay: Cytotoxicity against human NCI-H226 cells assessed as cellular growth at 10 uM by SRB assay
EKVX = assay: Cytotoxicity against human EKVX cells assessed as cellular growth at 10 uM by SRB assay
RPMI-8226 = assay: Cytotoxicity against human RPMI8226 cells assessed as cellular growth at 10 uM by SRB assay

Structure (SMILES)	Activity (T47D) [%]	Activity (MDA-MB-231) [%]	Activity (MCF7) [%]	Activity (UO-31) [%]	Activity (ACHN) [%]	Activity (SK-OV-3) [%]	Activity (OVCAR-8) [%]	Activity (OVCAR-3) [%]	Activity (UACC-257) [%]	Activity (SK-MEL-5) [%]	Activity (SK-MEL-28) [%]	Activity (SK-MEL-2) [%]	Activity (LOX IMVI) [%]	Activity (U-251) [%]	Activity (SNB-75) [%]	Activity (SF-539) [%]	Activity (HCT-116) [%]	Activity (NCI-H226) [%]	Activity (EKVX) [%]	Activity (RPMI-8226) [%]
Cc1cccc(-c2nc(-c3cccs3)no2)c1	53.59	76.61	39.04	59.19	99.9	94.86	98.72	104	93.98	82.84	109.6	100.25	95.98	82.28	85.75	115.88	96.5	94.62	84.59	92.97
Clc1ccc(-c2nc(-c3cccs3)no2)cc1	66.67	81.39	36.78	74.13	96.33	106.04	106.56	103.69	109.98	90.07	115.07	116.4	93.13	90.3	81.53	92.56	92.37	100.24	85.36	93.69
c1ccc(-c2nc(-c3cccs3)no2)cc1	65.5	77.5	52.58	88.86	102.77	106.03	105.37	105.28	103.2	97.58	117.87	103.18	99.72	94.72	105.81	105.74	104.23	91.26	102.25	102.22
COc1ccc(Cl)cc1C(=O)Nc1nc2ccc(Cl)cc2s1	47.23	70.89	41.75	58.24	85.89	91.86	88.9	102.8	101.95	92.79	105.02	103.7	81.24	87.26	74.28	86.39	53.23	89.17	76.23	80.55
O=C(Nc1nc2ccc(Cl)cc2s1)c1ccc(Cl)cc1	93.28	98.56	99.61	97.6	96.94	89.31	98.61	112.95	94.31	94.67	109.14	111.04	98.77	94.55	100.74	88.34	98.42	84.73	94	95.05
O=S(=O)(Oc1ccc(-c2cnc3ccccc3n2)cc1)c1ccc2ccccc2c1	91.09	103.12	103.49	118.94	118.15	102.69	110.71	107.67	114.11	84.35	112.84	107.17	115.1	104.05	119.77	119.65	94.69	98.79	94.26	89.09
O=C(Nc1ccc2oc(=O)ccc2c1)c1ccc(-c2ccc(Cl)c(Cl)c2)o1	81.58	86.89	86.24	65.88	78.44	107.01	94.2	102.55	97.36	87.91	101.23	102.15	47.73	92.91	92.21	90.55	57.64	92.4	94.26	70.14
O=S(=O)(Oc1ccc(-c2cnc3ccccc3n2)cc1)c1ccccc1	86.45	105.17	94.53	94.43	103.61	106.76	100.22	112.06	100.15	92.11	110.13	109.62	95.98	92.1	108.13	94.38	94.15	94.97	93.17	87.36
